Assay results as given in ChEMBL document CHEMBL1909046, “DrugMatrix in vitro pharmacology data”.

Key:
[1] = biological target: T1, Type-2 angiotensin II receptor (Homo sapiens, UniProt P50052); type: cell-based; conditions: cho-k1
T1 sequence (P50052 whole entry): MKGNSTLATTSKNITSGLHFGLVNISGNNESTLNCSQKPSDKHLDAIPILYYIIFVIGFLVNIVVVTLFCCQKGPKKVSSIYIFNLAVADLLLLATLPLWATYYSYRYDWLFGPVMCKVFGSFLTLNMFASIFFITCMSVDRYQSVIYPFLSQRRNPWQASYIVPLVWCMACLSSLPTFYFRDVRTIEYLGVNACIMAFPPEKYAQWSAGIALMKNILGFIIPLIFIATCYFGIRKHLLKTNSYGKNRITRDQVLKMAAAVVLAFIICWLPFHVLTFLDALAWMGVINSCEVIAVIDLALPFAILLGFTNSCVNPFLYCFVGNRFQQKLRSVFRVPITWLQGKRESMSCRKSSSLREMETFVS

[2] = biological target: 5-hydroxytryptamine receptor 2B (Homo sapiens, UniProt P41595); type: cell membranes, CHO-K1, Membrane; conditions: cho-k1
[3] = biological target: T2, Nitric oxide synthase, inducible (Mus musculus, UniProt P29477); design: species or system Escherichia coli;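 note: inhibition of iNOS enzyme activity measured with L-arginine as substrate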
T2 sequence (P29477 whole entry): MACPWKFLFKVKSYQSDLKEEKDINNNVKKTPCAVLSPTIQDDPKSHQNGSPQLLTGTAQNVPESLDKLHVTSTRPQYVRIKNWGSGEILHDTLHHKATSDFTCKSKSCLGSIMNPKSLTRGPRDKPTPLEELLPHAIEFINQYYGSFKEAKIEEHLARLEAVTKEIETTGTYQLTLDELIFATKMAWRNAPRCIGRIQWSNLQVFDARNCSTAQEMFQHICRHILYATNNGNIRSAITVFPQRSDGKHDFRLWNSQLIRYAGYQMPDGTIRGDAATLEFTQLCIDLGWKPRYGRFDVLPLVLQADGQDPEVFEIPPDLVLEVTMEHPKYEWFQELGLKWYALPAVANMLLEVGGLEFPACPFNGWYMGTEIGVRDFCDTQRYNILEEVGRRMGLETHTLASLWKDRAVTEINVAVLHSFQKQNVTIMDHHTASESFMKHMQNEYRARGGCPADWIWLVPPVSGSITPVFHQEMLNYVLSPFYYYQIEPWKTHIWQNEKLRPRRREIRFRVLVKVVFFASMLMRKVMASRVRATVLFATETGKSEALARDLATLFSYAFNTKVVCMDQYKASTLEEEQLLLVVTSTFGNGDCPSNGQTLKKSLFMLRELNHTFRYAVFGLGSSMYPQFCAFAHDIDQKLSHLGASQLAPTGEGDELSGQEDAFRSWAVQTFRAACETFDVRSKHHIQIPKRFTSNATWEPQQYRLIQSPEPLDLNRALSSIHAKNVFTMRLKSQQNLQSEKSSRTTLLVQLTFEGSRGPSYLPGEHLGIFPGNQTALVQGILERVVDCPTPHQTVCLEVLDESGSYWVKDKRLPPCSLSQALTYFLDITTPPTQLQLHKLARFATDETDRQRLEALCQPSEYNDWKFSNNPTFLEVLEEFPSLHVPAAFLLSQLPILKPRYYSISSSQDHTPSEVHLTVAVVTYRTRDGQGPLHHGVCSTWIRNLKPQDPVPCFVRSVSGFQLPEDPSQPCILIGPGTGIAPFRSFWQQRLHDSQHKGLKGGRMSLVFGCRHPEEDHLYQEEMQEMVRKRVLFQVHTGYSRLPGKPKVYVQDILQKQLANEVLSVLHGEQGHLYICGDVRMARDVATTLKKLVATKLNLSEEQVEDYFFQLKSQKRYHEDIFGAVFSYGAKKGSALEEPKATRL

[4] = biological target: Matrix metalloproteinase-9 (Homo sapiens, UniProt P14780); test: biochemical; type: cell-based;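 note: inhibition of isolated MMP-9 enzyme activity toward a synthetic peptide substrate, from the DrugMatrix protease screening panel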
[5] = biological target: T3, 5-hydroxytryptamine receptor 1A (Rattus norvegicus, UniProt P19327); type: cell membranes, CHO-K1, Membrane; conditions: cho-k1
T3 sequence (P19327 whole entry): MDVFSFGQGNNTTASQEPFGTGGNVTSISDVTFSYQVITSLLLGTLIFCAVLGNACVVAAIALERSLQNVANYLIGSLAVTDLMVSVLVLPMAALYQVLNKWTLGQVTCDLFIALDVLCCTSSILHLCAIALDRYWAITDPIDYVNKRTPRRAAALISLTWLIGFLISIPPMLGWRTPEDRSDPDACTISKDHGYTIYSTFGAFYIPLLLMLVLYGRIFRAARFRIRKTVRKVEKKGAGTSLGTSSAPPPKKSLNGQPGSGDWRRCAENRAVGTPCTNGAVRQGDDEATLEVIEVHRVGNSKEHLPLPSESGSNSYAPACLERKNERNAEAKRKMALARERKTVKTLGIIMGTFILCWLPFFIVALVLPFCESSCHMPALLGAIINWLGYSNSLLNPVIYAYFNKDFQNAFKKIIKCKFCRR

Cytochrome P450 1A2 = biological target: T4, Cytochrome P450 1A2 (Homo sapiens, UniProt P05177); conditions: bti-tn-5b1-4
T4 sequence (P05177 whole entry): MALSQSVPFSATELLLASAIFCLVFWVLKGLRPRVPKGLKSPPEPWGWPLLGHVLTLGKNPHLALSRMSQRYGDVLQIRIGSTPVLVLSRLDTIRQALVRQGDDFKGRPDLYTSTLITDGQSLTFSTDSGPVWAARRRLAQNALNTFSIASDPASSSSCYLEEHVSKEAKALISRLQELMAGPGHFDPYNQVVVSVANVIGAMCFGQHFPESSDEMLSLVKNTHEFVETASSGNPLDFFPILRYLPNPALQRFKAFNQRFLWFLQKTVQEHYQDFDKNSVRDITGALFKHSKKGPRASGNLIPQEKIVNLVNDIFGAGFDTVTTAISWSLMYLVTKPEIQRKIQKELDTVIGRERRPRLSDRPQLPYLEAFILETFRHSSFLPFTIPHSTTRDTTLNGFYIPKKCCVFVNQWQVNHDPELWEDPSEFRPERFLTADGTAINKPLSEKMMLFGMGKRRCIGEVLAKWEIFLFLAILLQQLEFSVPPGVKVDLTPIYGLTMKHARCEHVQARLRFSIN

[6] = biological target: Voltage-gated inwardly rectifying potassium channel KCNH2 (Homo sapiens, UniProt Q12809); conditions: hek293
Note: in other assays of this panel Not Active means under 50% inhibition at 10 µM.

Sequence of 5-hydroxytryptamine receptor 2B (P41595 whole entry): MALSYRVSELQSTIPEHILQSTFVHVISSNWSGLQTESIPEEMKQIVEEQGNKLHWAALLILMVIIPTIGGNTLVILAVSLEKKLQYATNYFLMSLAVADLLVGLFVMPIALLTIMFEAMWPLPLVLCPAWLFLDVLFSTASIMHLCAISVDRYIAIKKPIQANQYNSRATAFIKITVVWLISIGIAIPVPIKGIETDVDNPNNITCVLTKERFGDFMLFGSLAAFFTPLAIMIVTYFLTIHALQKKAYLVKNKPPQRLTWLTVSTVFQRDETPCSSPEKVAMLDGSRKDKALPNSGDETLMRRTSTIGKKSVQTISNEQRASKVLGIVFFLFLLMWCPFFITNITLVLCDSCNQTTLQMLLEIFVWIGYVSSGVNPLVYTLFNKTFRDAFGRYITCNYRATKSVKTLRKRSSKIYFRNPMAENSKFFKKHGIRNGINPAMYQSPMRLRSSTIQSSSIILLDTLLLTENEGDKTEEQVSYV
Sequence of Matrix metalloproteinase-9 (P14780 whole entry): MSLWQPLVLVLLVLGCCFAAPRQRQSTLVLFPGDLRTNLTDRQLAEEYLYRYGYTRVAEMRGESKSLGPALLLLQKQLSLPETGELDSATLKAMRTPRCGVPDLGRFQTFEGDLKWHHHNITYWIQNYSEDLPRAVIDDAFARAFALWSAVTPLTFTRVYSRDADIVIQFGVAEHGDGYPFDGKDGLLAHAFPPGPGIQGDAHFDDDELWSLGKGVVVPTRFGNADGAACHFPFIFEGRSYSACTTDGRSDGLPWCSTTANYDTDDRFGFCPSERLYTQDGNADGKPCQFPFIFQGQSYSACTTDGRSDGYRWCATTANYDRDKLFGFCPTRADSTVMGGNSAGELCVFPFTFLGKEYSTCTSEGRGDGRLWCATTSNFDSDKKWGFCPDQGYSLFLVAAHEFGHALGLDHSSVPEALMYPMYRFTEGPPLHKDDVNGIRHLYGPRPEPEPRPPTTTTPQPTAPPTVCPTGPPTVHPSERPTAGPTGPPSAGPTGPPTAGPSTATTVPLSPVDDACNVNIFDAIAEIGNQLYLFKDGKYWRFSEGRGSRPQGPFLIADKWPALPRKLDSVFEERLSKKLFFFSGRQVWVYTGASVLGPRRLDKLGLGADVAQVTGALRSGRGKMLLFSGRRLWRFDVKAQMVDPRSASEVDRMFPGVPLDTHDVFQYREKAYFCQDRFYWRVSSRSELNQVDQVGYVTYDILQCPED
Sequence of Voltage-gated inwardly rectifying potassium channel KCNH2 (Q12809 whole entry): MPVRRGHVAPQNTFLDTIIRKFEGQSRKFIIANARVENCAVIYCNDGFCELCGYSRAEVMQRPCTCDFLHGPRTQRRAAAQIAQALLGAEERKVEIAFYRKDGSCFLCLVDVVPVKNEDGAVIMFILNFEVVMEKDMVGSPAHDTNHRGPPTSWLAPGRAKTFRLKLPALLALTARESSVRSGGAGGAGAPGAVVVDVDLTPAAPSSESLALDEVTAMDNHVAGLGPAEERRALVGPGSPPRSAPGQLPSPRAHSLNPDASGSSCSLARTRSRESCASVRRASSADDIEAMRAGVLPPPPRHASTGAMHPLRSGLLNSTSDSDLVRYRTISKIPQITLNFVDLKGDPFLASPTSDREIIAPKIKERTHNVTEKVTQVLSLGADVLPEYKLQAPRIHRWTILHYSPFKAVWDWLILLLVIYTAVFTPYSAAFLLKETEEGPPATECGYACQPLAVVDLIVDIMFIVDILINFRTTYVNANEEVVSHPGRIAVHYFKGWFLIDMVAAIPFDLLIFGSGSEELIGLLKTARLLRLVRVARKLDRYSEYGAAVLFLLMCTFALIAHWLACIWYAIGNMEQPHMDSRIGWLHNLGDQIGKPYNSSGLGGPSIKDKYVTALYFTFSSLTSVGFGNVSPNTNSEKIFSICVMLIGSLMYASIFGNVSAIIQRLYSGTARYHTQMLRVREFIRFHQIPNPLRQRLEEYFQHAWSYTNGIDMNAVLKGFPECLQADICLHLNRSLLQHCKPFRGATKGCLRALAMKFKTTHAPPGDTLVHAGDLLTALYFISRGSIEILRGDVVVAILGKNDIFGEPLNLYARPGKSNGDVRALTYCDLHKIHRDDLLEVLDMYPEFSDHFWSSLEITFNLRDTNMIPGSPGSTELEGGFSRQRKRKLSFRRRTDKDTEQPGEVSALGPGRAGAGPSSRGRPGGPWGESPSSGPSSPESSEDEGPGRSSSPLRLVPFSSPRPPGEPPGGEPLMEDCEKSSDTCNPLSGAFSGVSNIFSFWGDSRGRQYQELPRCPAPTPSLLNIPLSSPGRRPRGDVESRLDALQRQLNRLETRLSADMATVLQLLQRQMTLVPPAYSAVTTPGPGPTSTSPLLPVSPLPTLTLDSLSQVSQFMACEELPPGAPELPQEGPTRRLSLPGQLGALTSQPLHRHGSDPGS

CC[C@H](C)C(=O)O[C@H]1C[C@H](O)C=C2C=C[C@H](C)[C@H](CC[C@@H](O)C[C@@H](O)CC(=O)O)[C@H]21 [PRAVASTATIN]
Not Active: IC50 [1] | IC50 [2] | IC50 [3] | IC50 [4] | IC50 [5] | IC50 (Cytochrome P450 1A2) | Ki (Cytochrome P450 1A2) | IC50 [6] | Ki [6]

CC(C)(Sc1cc(C(C)(C)C)c(O)c(C(C)(C)C)c1)Sc1cc(C(C)(C)C)c(O)c(C(C)(C)C)c1 [PROBUCOL]
Not Active: IC50 [1] | IC50 [2] | IC50 [3] | IC50 [4] | IC50 [5] | IC50 (Cytochrome P450 1A2) | Ki (Cytochrome P450 1A2) | IC50 [6] | Ki [6]

COBALT(II) ACETYLACETONATE
Not Active: IC50 [1] | Ki [1] | IC50 [2] | Ki [2] | IC50 [3] | Ki [3] | IC50 [4] | Ki [4] | IC50 [5] | Ki [5] | IC50 (Cytochrome P450 1A2) | Ki (Cytochrome P450 1A2) | IC50 [6] | Ki [6]

INSULIN HUMAN
Not Active: IC50 [1] | Ki [1] | IC50 [2] | Ki [2] | IC50 [3] | Ki [3] | IC50 [4] | Ki [4] | IC50 [5] | Ki [5] | IC50 (Cytochrome P450 1A2) | Ki (Cytochrome P450 1A2) | IC50 [6] | Ki [6]

POLYVINYL ALCOHOL
Not Active: IC50 [1] | Ki [1] | IC50 [2] | Ki [2] | IC50 [3] | Ki [3] | IC50 [4] | Ki [4] | IC50 [5] | Ki [5] | IC50 (Cytochrome P450 1A2) | Ki (Cytochrome P450 1A2) | IC50 [6] | Ki [6]
